Values of other authors in US20090264528A1, “SERINE PALMITOYLCOA TRANSFERASE (SPT) INHIBITION BY MYRIOCIN OR GENETIC DEFICIENCY DECREASES CHOLESTEROL ABSORPTION” (The Research Foundation of State University of New York, priority 2008, published 2009).

Conditions: apoE KO mice; cited from earlier work

CCCCCCCCc1ccc(CCC(N)(CO)CO)cc1 [FTY720]
plasma cholesterol levels: increases
